The results in this text go back to US10383859B2, “Benzo[d]thiazole derivative or salt thereof, and pharmaceutical composition including same” (Yuhan Corporation, priority 2016, dated 2019).

A value given as a limit tells only on which side of the number the result lay.

The test system of the first assay is A549 cells. Kind of assay: Cell migration assay (24-well transwell, laminin). It is filed as cell-based, human. The note with it: Homo sapiens, A549, 6 h, laminin 10 μg/mL in lower well, test compounds 0.39˜100 μM, migrated cells counted, read-out: Inhibitory activity against cell migration. The procedure: Cell migration was measured with a 24-well transwell having a polycarbonate membrane (8.0 μm pore size, Costar) at the bottom of the upper chamber. Each lower well was treated with laminin (10 μg/mL) and test compounds in predetermined concentrations (0.39˜100 μM) along with a serum-free RPMI1640 medium. A549 cells (Korean Cell Line Bank) were suspended in a serum-free RPMI1640 medium at a concentration of 1×10^6 cells/mL and then the test compounds were added thereto at the indicated concentrations. Each resulting solution (100 μL) was added to the upper chamber. The cells were cultured at 37° C. for 6 hours in a CO2 incubator. The upper chamber was taken out and then the cells were fixed with PBS containing 70% methyl alcohol for 10 minutes, followed by washing with PBS twice. The cells were stained with hematoxylin (Sigma) for 10 minutes and then washed with distilled water. The non-migrated cells were removed from the upper portion of the polycarbonate membrane with a cotton swab. The membranes were excised and separated from the chamber, and then mounted to a slide using a gel mount reagent (Biomeda, USA). The migrated cells (attached to the lower face of the membrane) were counted at three randomly selected sites under a microscope (×20). The cell counting was performed with the Image J program. From the counted cell numbers, each IC50 value was calculated by non-linear regression curve fit using the “GraphPad Prism” program.
The cells are pulled by laminin residing in the lower chamber and then passed through the polycarbonate membrane, so as to attach to the lower face of the membrane.
With `COc1ccc(CCN(Cc2ccc(C(=O)O)cc2)c2nc3cccc(F)c3s2)cc1` [Example 1, 4-({(7-fluorobenzo[d]thiazol-2-yl)[2-(4-methoxyphenyl)ethyl]amino}methyl)benzoic acid], the IC50 is less than 1 µM.

As to `O=C(O)c1ccc(CN(CCc2ccccc2Cl)c2nc3cccc(F)c3s2)cc1` [Example 2, 4-(((2-chlorophenylethyl)(7-fluorobenzo[d]thiazol-2-yl)amino)methyl)benzoic acid], the IC50 was less than 1 µM. Same read-out and setting: in the case of `O=C(O)c1ccc(CN(CCc2cccc(F)c2)c2nc3cccc(F)c3s2)cc1` [Example 3, 4-({(7-fluorobenzo[d]thiazol-2-yl)[2-(3-fluorophenyl)ethyl]amino}methyl)benzoic acid] it was greater than 10 µM; in that of `O=C(O)c1ccc(CN(CCc2ccc(Cl)cc2)c2nc3cccc(F)c3s2)cc1` [Example 4, 4-{[[2-(4-chlorophenyl)ethyl](7-fluorobenzo[d]thiazol-2-yl)amino]methyl}benzoic acid], 1 to 10 µM.

With `O=C(O)c1ccc(CN(CCc2cccc(Cl)c2)c2nc3cccc(F)c3s2)cc1` [Example 5, 4-{[[2-(3-chlorophenyl)ethyl](7-fluorobenzo[d]thiazol-2-yl)amino]methyl}benzoic acid], the IC50 is greater than 10 µM. On the same count and under the same terms, under `Cc1ccc(CCN(Cc2ccc(C(=O)O)cc2)c2nc3cccc(F)c3s2)cc1` [Example 6, 4-(((7-fluorobenzo[d]thiazol-2-yl)(4-methylphenylethyl)amino)methyl)benzoic acid] stands less than 1 µM; under `O=C(O)c1ccc(CN(CCc2ccc(F)cc2)c2nc3cccc(F)c3s2)cc1` [Example 8, 4-({(7-fluorobenzo[d]thiazol-2-yl)[2-(4-fluorophenyl)ethyl]amino}methyl)benzoic acid], greater than 10 µM. Still for that read-out and setting: under `CCOc1ccc(CCN(Cc2ccc(C(=O)O)cc2)c2nc3cccc(F)c3s2)cc1` [Example 9, 4-{[[2-(4-ethoxyphenyl)ethyl](7-fluorobenzo[d]thiazol-2-yl)amino]methyl}benzoic acid] stands less than 1 µM; under `CCCOc1ccc(CCN(Cc2ccc(C(=O)O)cc2)c2nc3cccc(F)c3s2)cc1` [Example 10, 4-({(7-fluorobenzo[d]thiazol-2-yl)[2-(4-propoxyphenyl)ethyl]amino}methyl)benzoic acid], 1 to 10 µM. On the same count and under the same terms, in the case of `CC(C)Oc1ccc(CCN(Cc2ccc(C(=O)O)cc2)c2nc3cccc(F)c3s2)cc1` [Example 11, 4-({(7-fluorobenzo[d]thiazol-2-yl)[2-(4-isopropoxyphenyl)ethyl]amino}methyl)benzoic acid] it was 1 to 10 µM; in that of `CSc1ccc(CCN(Cc2ccc(C(=O)O)cc2)c2nc3cccc(F)c3s2)cc1` [Example 12, 4-{[(7-fluorobenzo[d]thiazol-2-yl){2-[4-(methylsulfanyl)phenyl]ethyl}amino]methyl}benzoic acid], less than 1 µM. As to `CSc1cccc(CCN(Cc2ccc(C(=O)O)cc2)c2nc3cccc(F)c3s2)c1` [Example 13, 4-{[(7-fluorobenzo[d]thiazol-2-yl){2-[3-(methylsulfanyl)phenyl]ethyl}amino]methyl}benzoic acid], the IC50 was less than 1 µM. Still for that read-out and setting: under `COc1ccc(OC)c(CCN(Cc2ccc(C(=O)O)cc2)c2nc3cccc(F)c3s2)c1` [Example 14, 4-({[2-(2,5-dimethoxyphenyl)ethyl](7-fluorobenzo[d]thiazol-2-yl)amino}methyl)benzoic acid] stands greater than 10 µM; under `COc1ccc(CCN(Cc2ccc(C(=O)O)cc2)c2nc3cccc(F)c3s2)cc1OC` [Example 15, 4-({[2-(3,4-dimethoxyphenyl)ethyl](7-fluorobenzo[d]thiazol-2-yl)amino}methyl)benzoic acid], less than 1 µM. Still for that read-out and setting: in the case of `COc1ccccc1CCN(Cc1ccc(C(=O)O)cc1)c1nc2cccc(F)c2s1` [Example 16, 4-({(7-fluorobenzo[d]thiazol-2-yl)[2-(2-methoxyphenyl)ethyl]amino}methyl)benzoic acid] it was greater than 10 µM. On the same count and under the same terms, under `Cc1cccc(CCN(Cc2ccc(C(=O)O)cc2)c2nc3cccc(F)c3s2)c1` [Example 17, 4-({(7-fluorobenzo[d]thiazol-2-yl)[2-(3-methylphenyl)ethyl]amino}methyl)benzoic acid] stands greater than 10 µM. As to `CC(C)COc1ccc(CCN(Cc2ccc(C(=O)O)cc2)c2nc3cccc(F)c3s2)cc1` [Example 18, 4-({(7-fluorobenzo[d]thiazol-2-yl)[2-(4-isobutoxyphenyl)ethyl]amino}methyl)benzoic acid], the IC50 fell in the range of 1 to 10 µM.

With `O=C(O)c1ccc(CN(CCc2ccc(OCC3CC3)cc2)c2nc3cccc(F)c3s2)cc1` [Example 19, 4-{[[2-(4-cyclopropylmethoxyphenyl)ethyl](7-fluorobenzo[d]thiazol-2-yl)amino]methyl}benzoic acid], the IC50 was less than 1 µM.

For the compound `CNc1ccc(CCN(Cc2ccc(C(=O)O)cc2)c2nc3cccc(F)c3s2)cc1` [Example 20, 4-{[(7-fluorobenzo[d]thiazol-2-yl){2-[4-(methylamino)phenyl]ethyl}amino]methyl}benzoic acid], the IC50 was less than 1 µM. As to `CN(C)c1ccc(CCN(Cc2ccc(C(=O)O)cc2)c2nc3cccc(F)c3s2)cc1` [Example 21, 4-{[{2-[4-(dimethylamino)phenyl]ethyl}(7-fluorobenzo[d]thiazol-2-yl)amino]methyl}benzoic acid], the IC50 is less than 1 µM. On to `O=C(O)c1ccc(CN(CCc2ccccc2)c2nc3cccc(F)c3s2)cc1` [Example 22, 4-{[(7-fluorobenzo[d]thiazol-2-yl)(2-phenylethyl)amino]methyl}benzoic acid], for which the IC50 is 1 to 10 µM.

Turning to `O=C(O)c1ccc(CN(CCc2ccc(OCC3CCCCC3)cc2)c2nc3cccc(F)c3s2)cc1` [Example 23, 4-{[[2-(4-cyclohexylmethoxyphenyl)ethyl]-(7-fluorobenzo[d]thiazol-2-yl)amino]methyl}benzoic acid], the IC50 is greater than 10 µM. On the same count and under the same terms, under `O=C(O)c1ccc(CN(CCc2ccc(OCC3CCC3)cc2)c2nc3cccc(F)c3s2)cc1` [Example 24, 4-{[[2-(4-cyclobutylmethoxyphenyl)ethyl]-(7-fluorobenzo[d]thiazol-2-yl)amino]methyl}benzoic acid] stands 1 to 10 µM; under `CCOc1ccc(CCN(Cc2ccc(C(=O)O)cc2)c2nc3cccc(F)c3s2)cc1OC` [Example 25, 4-({[2-(4-ethoxy-3-methoxyphenyl)ethyl](7-fluorobenzo[d]thiazol-2-yl)amino}methyl)benzoic acid], greater than 10 µM; under `COc1ccc(CCN(Cc2ccc(C(=O)O)cc2)c2nc3cccc(F)c3s2)c(F)c1` [Example 26, 4-({(7-fluorobenzo[d]thiazol-2-yl)[2-(2-fluoro-4-methoxyphenyl)ethyl]amino}methyl)benzoic acid], less than 1 µM. Same read-out and setting: in the case of `COc1ccc(CCN(Cc2ccc(C(=O)O)cc2)c2nc3cccc(F)c3s2)c(OC)c1` [Example 27, 4-({[2-(2,4-dimethoxyphenyl)ethyl](7-fluorobenzo[d]thiazol-2-yl)amino}methyl)benzoic acid] it was 1 to 10 µM. The same measure, in the same setting: under `COc1ccc(CCN(Cc2ccc(C(=O)O)cc2)c2nc3cccc(F)c3s2)cc1F` [Example 28, 4-({(7-fluorobenzo[d]thiazol-2-yl)[2-(3-fluoro-4-methoxyphenyl)ethyl]amino}methyl)benzoic acid] stands less than 1 µM; under `COc1ccc(CCN(Cc2ccc(C(=O)O)cc2)c2nc3cccc(F)c3s2)cc1Cl` [Example 29, 4-({[2-(3-chloro-4-methoxyphenyl)ethyl](7-fluorobenzo[d]thiazol-2-yl)amino}methyl)benzoic acid], less than 1 µM; under `CCC(C)Oc1ccc(CCN(Cc2ccc(C(=O)O)cc2)c2nc3cccc(F)c3s2)cc1` (stereo not shown) [Example 30, 4-{[[2-(4-sec-butoxyphenyl)ethyl](7-fluorobenzo[d]thiazol-2-yl)amino]methyl}benzoic acid], greater than 10 µM. In the case of `CCNc1ccc(CCN(Cc2ccc(C(=O)O)cc2)c2nc3cccc(F)c3s2)cc1` [Example 31, 4-{[[2-(4-ethylaminophenyl)ethyl](7-fluorobenzo[d]thiazol-2-yl)amino]methyl}benzoic acid], the IC50 lay within 1 to 10 µM. Still for that read-out and setting: under `CCc1ccc(CCN(Cc2ccc(C(=O)O)cc2)c2nc3cccc(F)c3s2)cc1` [Example 32, 4-({[2-(4-ethylphenyl)ethyl](7-fluorobenzo[d]thiazol-2-yl)amino}methyl)benzoic acid] stands less than 1 µM; under `CC(C)c1ccc(CCN(Cc2ccc(C(=O)O)cc2)c2nc3cccc(F)c3s2)cc1` [Example 33, 4-{[(7-fluorobenzo[d]thiazol-2-yl){2-[4-(propan-2-yl)phenyl]ethyl}amino]methyl}benzoic acid], greater than 10 µM; under `O=C(O)c1ccc(CN(CCc2cccc(F)c2F)c2nc3cccc(F)c3s2)cc1` [Example 34, 4-({[2-(2,3-difluorophenyl)ethyl](7-fluorobenzo[d]thiazol-2-yl)amino}methyl)benzoic acid], greater than 10 µM.

Still in this assay, the particulars now being: laminin 10 μg/mL in lower well, test compounds 0.39˜100 μM, 6 hours, migrated cells counted, read-out: Inhibitory activity against cell migration.
For the compound `COc1cccc(CCN(Cc2ccc(C(=O)O)cc2)c2nc3cccc(F)c3s2)c1` [Example 7, 4-({(7-fluorobenzo[d]thiazol-2-yl)[2-(3-methoxyphenyl)ethyl]amino}methyl)benzoic acid], the IC50 fell in the range of 1 to 10 µM.
